Laboratory results reported in patent publication US20230210999A1, “TARGETED PROTEASE DEGRADATION (TED) PLATFORM” (EUBULUS BIOTHERAPEUTICS INC., priority 2020, published 2023).
Read-outs that look alike come from different tables or passages of the source.

Columns and labels:
[1] = test system: MV4;11 cells; assay: Cell proliferation experiment (Alamar blue, 72 h), MV4;11; assay type: cell-based, human; conditions: Homo sapiens, MV4-11, 72 h, read-out: Inhibitory activity IC50 of tested compounds on MV4;11 cells
Method in brief: (§1)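 Alamar blue fluorescence after 72 h of compound exposure; IC50 from 4-parameter fit (Min, Max, Slope). Cells passaged ≥2 times, log-phase, 96-well, duplicate wells, 5-fold serial dilutions.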

[2] = test system: Daudi cells; assay: Cell proliferation experiment, Daudi; assay type: cell-based, human; conditions: Homo sapiens, Daudi, 72 h, read-out: Inhibitory activity IC50 of tested compounds on Daudi cells
Method in brief: as §1

[3] = test system: NCIH82 cells; assay: Cell proliferation experiment, NCI-H82; assay type: cell-based, human; conditions: Homo sapiens, NCI-H82, 72 h, read-out: Inhibitory activity IC50 of tested compounds on NCIH82 cells
Method in brief: as §1

[4] = test system: HT-29 cells; assay: Cell proliferation experiment, HT-29; assay type: cell-based; conditions: Homo sapiens, read-out: Inhibitory activity IC50 of tested compounds on HT-29 cells
Method: (§2) Reagents: RPMI-1640 medium, McCoy's 5A medium, IMDM medium, MEM medium, L-15 medium, fetal bovine serum. Penicillin-Streptomycin double antibody, trypsin, etc., 2-mercaptoethanol, NEAA, pyruvate, etc.
(§3) The cells were cultured in conventional ways, and the cells should be passed at least 2 generations before plating. Cells at the logarithmic growth phase were collected, prepared into single cell suspensions and counted. The concentration of cells was adjusted to the desired concentration, and cells were inoculated into a 96-well cell culture plate at 100 μl per well. 100 μL of complete medium of the test compound were added to each well, set up 2 duplicate wells for each concentration, and diluted with a 5-fold gradient, and continued to culture for 72 h. All cells were subjected to IC50 test for corresponding samples. The experimental results are shown in Test Example 4.
(§4) The fluorescence intensity of each well was detected using the Alarm blue method, and IC50 was calculated.
(§5) IC50 was calculated according to the following formula:
(§6) Y=Max+(Min−Max)/[1+(X/IC50)×Slope]
(§7) wherein Min, Max and Slope represent the minimum, maximum and slope respectively.

[5] = test system: U-87MG cells; assay: Cell proliferation experiment, U-87MG; assay type: cell-based; conditions: Homo sapiens, 72 h, read-out: Inhibitory activity IC50 of tested compounds on U-87MG cells
Method: as §2, §3, §4, §5, §6, §7

Structure (SMILES) | IC50 ([1]; MV4;11 cells, 72 h) | IC50 ([2]; Daudi cells) | IC50 ([3]; NCIH82 cells, 72 h) | IC50 ([4]; HT-29 cells, 72 h) | IC50 ([5]; U-87MG cells) | IC50 [1] | IC50 [2] | IC50 [3] | IC50 ([4]; HT-29, 72 h) | IC50 ([5]; U-87 MG)
CC[C@@H]1C(=O)N(C)c2cnc(Nc3ccc(C(=O)NCCOCCOCCOCCNCC(=O)N[C@H](C(=O)N4C[C@H](O)C[C@H]4C(=O)NCc4ccc(-c5scnc5C)cc4)C(C)(C)C)cc3OC)nc2N1C1CCCC1 [Compound 854] |  |  |  |  |  | 100 to 1000 nM | > 1000 nM | > 1000 nM | > 1000 nM | > 1000 nM
CC[C@@H]1C(=O)N(C)c2cnc(Nc3ccc(C(=O)NC4CCN(CCOCCNCCC(=O)NC(C(=O)N5C[C@H](O)C[C@H]5C(=O)NCc5ccc(-c6scnc6C)cc5)C(C)(C)C)CC4)cc3OC)nc2N1C1CCCC1 (some centres unmarked) [Compound 858] | > 1000 nM | > 1000 nM | > 1000 nM | > 1000 nM | > 1000 nM |  |  |  |  | 
CC[C@@H]1C(=O)N(C)c2cnc(Nc3ccc(C(=O)NC4CCN(CCOCCNCC(=O)NC(C(=O)N5C[C@H](O)C[C@H]5C(=O)NCc5ccc(-c6scnc6C)cc5)C(C)(C)C)CC4)cc3OC)nc2N1C1CCCC1 (some centres unmarked) [Compound 859] |  |  |  |  |  | 100 to 1000 nM | > 1000 nM | > 1000 nM | > 1000 nM | > 1000 nM
CC[C@@H]1C(=O)N(C)c2cnc(Nc3ccc(C(=O)NC4CCN(CCO)CC4)cc3OC)nc2N1C1CCCC1 [Compound 865] | ≤ 100 nM | ≤ 100 nM | ≤ 1000 nM | ≤ 300 nM | ≤ 100 nM |  |  |  |  | 
CC[C@@H]1C(=O)N(C)c2cnc(Nc3ccc(C(=O)NC4CCN(CCOCCNC5(C(=O)Nc6cccc7c6CN(C6CCC(=O)NC6=O)C7=O)CC5)CC4)cc3OC)nc2N1C1CCCC1 (some centres unmarked) [Compound 867] | ≤ 100 nM | ≤ 100 nM | ≤ 1000 nM | 300 to 1000 nM | 500 to 1000 nM |  |  |  |  | 
CC[C@@H]1C(=O)N(C)c2cnc(Nc3ccc(C(=O)NC4CCN(CCOCCNCC(O)C#Cc5cccc6c5CN(C5CCC(=O)NC5=O)C6=O)CC4)cc3OC)nc2N1C1CCCC1 (some centres unmarked) [Compound 869] | ≤ 100 nM | 100 to 1000 nM | ≤ 1000 nM | > 1000 nM | 100 to 500 nM |  |  |  |  | 
CC[C@@H]1C(=O)N(C)c2cnc(Nc3ccc(C(=O)NC4CCN(CCOC[C@@H](N)C(=O)Nc5cccc6c5CN(C5CCC(=O)NC5=O)C6=O)CC4)cc3OC)nc2N1C1CCCC1 (some centres unmarked) [Compound 870] | 100 to 1000 nM | > 1000 nM | > 1000 nM | > 1000 nM | > 1000 nM |  |  |  |  | 
CC[C@@H]1C(=O)N(C)c2cnc(Nc3ccc(C(=O)NC4CCN(CCOCCOC[C@H](N)C(=O)Nc5cccc6c5CN(C5CCC(=O)NC5=O)C6=O)CC4)cc3OC)nc2N1C1CCCC1 (some centres unmarked) [Compound 871] | 100 to 1000 nM | > 1000 nM | ≤ 1000 nM | > 1000 nM | > 1000 nM |  |  |  |  | 

Second part, led by results:

IC50 ([1]; MV4;11 cells, 72 h) | IC50 ([2]; Daudi cells) | IC50 ([3]; NCIH82 cells, 72 h) | IC50 ([4]; HT-29 cells, 72 h) | IC50 ([5]; U-87MG cells) | Structure (SMILES) | IC50 [1] | IC50 [2] | IC50 [3] | IC50 ([4]; HT-29, 72 h) | IC50 ([5]; U-87 MG)
≤ 100 nM | 100 to 1000 nM | ≤ 1000 nM | > 1000 nM | 500 to 1000 nM | CC[C@@H]1C(=O)N(C)c2cnc(Nc3ccc(C(=O)NC4CCN(CCOCCNC5CN(c6cccc7c6C(=O)N(C6CCC(=O)NC6=O)C7=O)C5)CC4)cc3OC)nc2N1C1CCCC1 (some centres unmarked) [Compound 857] |  |  |  |  | 
100 to 1000 nM | 100 to 1000 nM | ≤ 1000 nM | > 1000 nM | > 1000 nM | CC[C@@H]1C(=O)N(C)c2cnc(Nc3ccc(C(=O)NC4CCN(CCOCC[C@@H](N)C(=O)Nc5cccc6c5CN(C5CCC(=O)NC5=O)C6=O)CC4)cc3OC)nc2N1C1CCCC1 (some centres unmarked) [Compound 863] |  |  |  |  | 
≤ 100 nM | ≤ 100 nM | ≤ 1000 nM | ≤ 300 nM | ≤ 100 nM | CC[C@@H]1C(=O)N(C)c2cnc(Nc3ccc(C(=O)NC4CCN(CCOCCO)CC4)cc3OC)nc2N1C1CCCC1 [Compound 864] |  |  |  |  | 
≤ 100 nM | ≤ 100 nM | ≤ 1000 nM | ≤ 300 nM | 100 to 500 nM | CC[C@@H]1C(=O)N(C)c2cnc(Nc3ccc(C(=O)NC4CCN(CCOCCN)CC4)cc3OC)nc2N1C1CCCC1 [Compound 866] |  |  |  |  | 
100 to 1000 nM | 100 to 1000 nM | ≤ 1000 nM | > 1000 nM | 500 to 1000 nM | CC[C@@H]1C(=O)N(C)c2cnc(Nc3ccc(C(=O)NC4CCN(CCOCCN5CC(Nc6cccc7c6C(=O)N(C6CCC(=O)NC6=O)C7=O)C5)CC4)cc3OC)nc2N1C1CCCC1 (some centres unmarked) [Compound 868] |  |  |  |  | 
